# Assay results from PMC11281459 (Viruses, 2024).
# Where “and” joins values, the source holds several entries; their conditions need not be identical. Identical values can stand only once. Like-named read-outs stand apart in the source and are kept apart here.
# Tests used:
# MERS-CoV replicon = test: microbe, parasite or virus in culture; type: cell-based; details: Middle East respiratory syndrome-related coronavirus, A549, read-out: EC50 Geomean
# SARS-CoV-2 = test: microbe, parasite or virus in culture; type: cell-based
# MERS-CoV [1] = test: microbe, parasite or virus in culture; type: cell-based; details: read-out: IC50 Mean ± SD
# MERS-CoV [2] = test: microbe, parasite or virus in culture; type: cell-based; details: for EC90: read-out: EC90 Mean ± SD
# [3] = system: SARS-CoV-2 (Omicron EG.5.1) and MERS-CoV; type: cell-based
# in vitro [4] = details: African green monkey
# SARS-CoV-2 replicon [5] = test: microbe, parasite or virus in culture; details: Severe acute respiratory syndrome coronavirus 2, A549, read-out: EC50 Geomean
# hCoV-229E = test: microbe, parasite or virus in culture; type: cell-based; details: Human coronavirus 229E, Huh-7, 120 h, read-out: EC50 Geomean
# hCoV-OC43 = test: microbe, parasite or virus in culture; type: cell-based; details: Betacoronavirus 1, OC43, Huh-7, 120 h, read-out: EC50 Geomean
# SARS-CoV-2 USA-WA1/2020 = system: SARS-CoV-2 USA-WA1/2020; set-up: species or system transgenic K18-hACE2 mice; details: mouse, in vivo
# MERS-CoV EMC 2012 = details: mouse, in vivo
# COVID-19 = details: human, in vivo; cited from earlier work
# in vitro [6] = details: human
# [7] = in vivo; cited from earlier work
# SARS-CoV-1 3CLPro = SARS-CoV-1 3CLPro (Severe acute respiratory syndrome coronavirus, UniProt P0C6X7); test: biochemical
# MERS-CoV 3CLPro = MERS-CoV 3CLPro (Middle East respiratory syndrome-related coronavirus, UniProt K9N7C7); test: biochemical
# Chain of MERS-CoV 3CLPro (K9N7C7 3248-3553 limits assumed): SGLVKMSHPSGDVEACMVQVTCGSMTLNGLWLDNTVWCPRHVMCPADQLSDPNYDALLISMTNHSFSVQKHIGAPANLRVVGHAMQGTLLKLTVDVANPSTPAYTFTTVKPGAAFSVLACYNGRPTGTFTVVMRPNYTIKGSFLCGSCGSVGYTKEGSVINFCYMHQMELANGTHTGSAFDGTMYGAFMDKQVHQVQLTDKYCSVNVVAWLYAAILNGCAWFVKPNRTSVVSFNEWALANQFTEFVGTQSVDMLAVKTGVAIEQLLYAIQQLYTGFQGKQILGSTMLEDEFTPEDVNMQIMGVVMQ
# hCoV-229E 3CLPro = hCoV-229E 3CLPro (Human coronavirus 229E, UniProt P0C6X1); test: biochemical
# Chain of hCoV-229E 3CLPro (P0C6X1 2966-3267 limits assumed): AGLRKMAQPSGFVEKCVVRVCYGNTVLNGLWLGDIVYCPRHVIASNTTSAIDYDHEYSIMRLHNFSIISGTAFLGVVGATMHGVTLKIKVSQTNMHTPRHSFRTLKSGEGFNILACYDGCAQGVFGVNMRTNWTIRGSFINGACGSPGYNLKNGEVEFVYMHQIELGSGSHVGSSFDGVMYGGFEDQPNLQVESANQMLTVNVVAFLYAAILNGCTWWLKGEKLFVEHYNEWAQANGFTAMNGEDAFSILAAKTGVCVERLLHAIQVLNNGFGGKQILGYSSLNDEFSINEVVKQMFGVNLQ
# hCoV-OC43 3CLPro = hCoV-OC43 3CLPro (Human coronavirus OC43, UniProt P0C6X6); test: biochemical
# Chain of hCoV-OC43 3CLPro (P0C6X6 3247-3549 limits assumed): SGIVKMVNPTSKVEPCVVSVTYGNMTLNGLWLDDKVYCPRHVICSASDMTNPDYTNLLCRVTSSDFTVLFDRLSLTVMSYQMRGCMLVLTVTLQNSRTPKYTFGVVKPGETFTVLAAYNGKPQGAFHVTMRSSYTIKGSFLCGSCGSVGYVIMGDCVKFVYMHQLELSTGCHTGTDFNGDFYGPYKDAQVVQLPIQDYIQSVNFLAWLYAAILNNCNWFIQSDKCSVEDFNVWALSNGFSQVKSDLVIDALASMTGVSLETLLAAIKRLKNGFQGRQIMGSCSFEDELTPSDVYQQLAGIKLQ
# hCoV-HKU1 3CLPro = hCoV-HKU1 3CLPro (Human coronavirus HKU1, UniProt P0C6X2); test: biochemical
# Chain of hCoV-HKU1 3CLPro (P0C6X2 3335-3637 limits assumed): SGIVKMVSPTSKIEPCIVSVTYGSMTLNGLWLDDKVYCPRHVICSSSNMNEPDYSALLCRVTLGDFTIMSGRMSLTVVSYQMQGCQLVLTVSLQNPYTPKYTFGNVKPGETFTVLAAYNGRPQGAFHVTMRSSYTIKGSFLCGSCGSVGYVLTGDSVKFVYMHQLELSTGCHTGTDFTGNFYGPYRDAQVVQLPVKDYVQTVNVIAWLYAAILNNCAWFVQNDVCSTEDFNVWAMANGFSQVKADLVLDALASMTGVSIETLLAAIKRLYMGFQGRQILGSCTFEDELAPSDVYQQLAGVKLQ
# hCoV-NL63 3CLPro = hCoV-NL63 3CLPro (Human coronavirus NL63, UniProt P0C6X5); test: biochemical
# Chain of hCoV-NL63 3CLPro (P0C6X5 2940-3242 limits assumed): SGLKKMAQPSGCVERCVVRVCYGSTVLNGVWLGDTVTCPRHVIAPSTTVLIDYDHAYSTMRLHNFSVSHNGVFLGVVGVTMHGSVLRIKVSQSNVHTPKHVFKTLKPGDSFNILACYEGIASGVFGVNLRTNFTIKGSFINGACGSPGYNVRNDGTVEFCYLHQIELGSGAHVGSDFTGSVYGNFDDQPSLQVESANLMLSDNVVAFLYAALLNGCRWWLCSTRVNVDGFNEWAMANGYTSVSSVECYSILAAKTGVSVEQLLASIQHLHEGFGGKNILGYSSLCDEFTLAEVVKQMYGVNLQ
# SARS-CoV-2 replicon [8] = details: read-out: EC50 Geomean
# [9] = in vivo
# [10] = K18-hDPP4, mouse, in vivo
# in vivo = details: female, CD-1, mouse; for AUC: po
# [11] = Severe acute respiratory syndrome coronavirus 2, read-out: EC50 Geomean
# [12] = Middle East respiratory syndrome-related coronavirus, VeroE6/TMPRSS2, 48 h
# [13] = Middle East respiratory syndrome-related coronavirus, VeroE6/TMPRSS2, 72 h, read-out: EC50 Mean ± SD
# [14] = Middle East respiratory syndrome-related coronavirus, read-out: EC50 Geomean
# [15] = Middle East respiratory syndrome-related coronavirus
smiles,measurement,setting,value
"CCC(CC)COC(=O)[C@H](C)N[P@](=O)(OC[C@H]1O[C@@](C#N)(c2ccc3c(N)ncnn23)[C@H](O)[C@@H]1O)Oc1ccccc1 [Remdesivir, remdesivir]",EC50,MERS-CoV replicon,0.78 µM
same,EC50,"SARS-CoV-2; Severe acute respiratory syndrome coronavirus 2, VeroE6/TMPRSS2, 72 h, read-out: EC50 Mean ± SD",0.149 ± 0.004 µM
same,EC50,SARS-CoV-2; [11],0.17 µM
same,EC50,SARS-CoV-2; read-out: EC50 Mean ± SD,0.11 µM and 0.163 µM and 0.094 µM and 0.155 µM and 0.09 µM and 0.141 µM and 0.15 µM
same,IC50,MERS-CoV [1]; [12],0.167 ± 0.033 µM
same,EC50,MERS-CoV [2]; [13],0.11 ± 0.018 µM
same,EC50,MERS-CoV [2]; [14],0.15 µM
same,EC90,MERS-CoV [2]; [15],0.24 ± 0.093 µM
same,shift in activity in the presence versus the absence of the P-GP inhibitor,[3],significant shift in activity
same,CC50,in vitro [4],20 µM
same,EC50,SARS-CoV-2 replicon [5],0.27 µM
"CC(C)(C)[C@H](NC(=O)C(F)(F)F)C(=O)N1C[C@H]2[C@@H]([C@H]1C(=O)N[C@H](C#N)C[C@@H]1CCNC1=O)C2(C)C [Nirmatrelvir, nirmatrelvir]",EC50,hCoV-229E,0.473 µM
same,EC50,hCoV-OC43,0.163 µM
same,EC50,MERS-CoV replicon,0.06 µM
same,EC50,SARS-CoV-2; [11],0.07 µM
same,EC50,SARS-CoV-2; read-out: EC50 Mean ± SD,0.05 ± 0.01 µM
same,IC50,MERS-CoV [1]; [12],0.117 ± 0.023 µM
same,EC50,MERS-CoV [2]; [13],0.088 ± 0.03 µM
same,EC50,MERS-CoV [2]; [14],0.07 µM
same,EC90,MERS-CoV [2]; [15],0.164 ± 0.01 µM
same,"lung pathology compared with vehicle group (H&E, semi-quantitative)",SARS-CoV-2 USA-WA1/2020,similar
same,"lung viral loads (TCID50), dose validation",SARS-CoV-2 USA-WA1/2020,significant reduction in the lung viral loads
same,viral lung burden (TCID50 and PFU assay),SARS-CoV-2 USA-WA1/2020,~ 6 logs
same,"lung viral loads (TCID50), dose validation",MERS-CoV EMC 2012,significant reduction in the lung viral loads
same,reduction in hospitalization rates and deaths,COVID-19,80–90%
same,EC50,in vitro [6],> 36 µM
same,CC50,in vitro [4],> 100 µM
same,increase of plasma levels by ritonavir,[7],up to 20 fold
same,EC50,SARS-CoV-2 replicon [5],0.01 µM
COc1cc2c(cc1OC)CN(CCc1ccc(NC(=O)c3cccc4c(=O)c5cccc(OC)c5[nH]c34)cc1)CC2 [elacridar],effect of P-GP inhibitor on the infection,[3],did not show an effect on the infection
same,toxicity of P-GP inhibitor to cells,Vero E6+TMPRSS2 cells,not toxic
CNC(=O)C(=O)[C@H](CCC(C)(F)F)NC(=O)[C@@H]1[C@H]2CCC[C@H]2CN1C(=O)[C@@H](NC(=O)OC)C(C)(C)C [MK-7845],IC50,SARS-CoV-1 3CLPro,0.0192 µM
same,IC50,MERS-CoV 3CLPro,0.318 µM
same,IC50,hCoV-229E 3CLPro,0.307 µM
same,IC50,hCoV-OC43 3CLPro,0.017 µM
same,IC50,hCoV-HKU1 3CLPro,0.0255 µM
same,IC50,hCoV-NL63 3CLPro,0.167 µM
same,EC50,hCoV-229E,3.15 µM
same,EC50,hCoV-OC43,0.37 µM
same,EC50,MERS-CoV replicon,0.27 µM
same,EC50,SARS-CoV-2; [11],0.14 µM
same,IC50,MERS-CoV [1]; [12],0.36 µM
same,IC50,MERS-CoV [1],0.362 ± 0.065 µM
same,EC50,MERS-CoV [2]; [13],0.46 µM
same,EC50,MERS-CoV [2]; [14],0.39 µM
same,EC90,MERS-CoV [2]; [15],0.541 ± 0.01 µM
same,EC50,MERS-CoV [2]; read-out: EC50 Mean ± SD,0.463 ± 0.008 µM
same,body weight change,SARS-CoV-2 USA-WA1/2020,gained weight
same,"lung pathology (H&E, semi-quantitative)",SARS-CoV-2 USA-WA1/2020,significantly reduced
same,"lung pathology compared with vehicle group (H&E, semi-quantitative)",SARS-CoV-2 USA-WA1/2020,similar
same,reduction in lung viral load (TCID50),SARS-CoV-2 USA-WA1/2020,no significant reduction in viral load
same,reduction in viral burden (TCID50) versus the nirmatrelvir group,SARS-CoV-2 USA-WA1/2020,3.4 log and 5 log
same,reduction in viral load by PFU assay compared to vehicle control,SARS-CoV-2 USA-WA1/2020,did not show a significant reduction in viral load
same,reduction of lung viral load (TCID50) compared to vehicle control,SARS-CoV-2 USA-WA1/2020,~ 5 logs and ~ 6 logs
same,reduction in viral burdens in the lungs,SARS-CoV-2 USA-WA1/2020; po,> 6 log orders
same,EC50,SARS-CoV-2 replicon [8],0.015 µM
same,plasma concentrations versus PBA EC90,"[9]; CD-1, mouse",above the PBA EC90
same,total plasma concentrations versus replicon EC90 and PBA EC90,[9]; mouse,stayed above
same,unbound mouse plasma fraction (fup),,0.379
same,PFU assay of lung homogenate,MERS-CoV EMC 2012,no plaques were formed
same,decrease in viral burden by PFU assay compared to vehicle-treated mice,MERS-CoV EMC 2012,~ 6 log
same,"lung pathology (H&E, semi-quantitative)",MERS-CoV EMC 2012,notable reduction in lung pathology
same,reduction in viral burden compared to vehicle-control group,MERS-CoV EMC 2012,3 log TCID50
same,reduction in viral load by PFU assay in comparison to nirmatrelvir,MERS-CoV EMC 2012,2.9 log and 3.6 log
same,viral genomic RNA in lung tissue by RT-PCR,MERS-CoV EMC 2012,did not observe a significant reduction
same,reduction in viral burdens in the lungs,MERS-CoV EMC 2012; po,> 6 log orders
same,plasma levels at troughs versus PBA EC90,[10],above the PBA EC90
same,Vd,"in vivo; iv, 5 mg/kg",1.2 L/kg
same,clearance,"in vivo; iv, 5 mg/kg",1.05 L/h/kg
same,half-life,"in vivo; iv, 5 mg/kg",47.4 min
same,AUC,in vivo; 100 mg/kg,49.1 µg·h/mL
same,AUC,in vivo; 250 mg/kg,146 µg·h/mL
same,AUC,in vivo; 500 mg/kg,238 µg·h/mL
same,AUC,in vivo; 1000 mg/kg,306 µg·h/mL
same,EC50,in vitro [6],> 36 µM
same,CC50,in vitro [4],> 100 µM
